Tests used:
[1] = Octanol-water partitioning co-efficient, log D of the compound at pH 7.4 by LC/MS/MS analysis; type: physicochemical
[2] = Intrinsic clearance in human hepatocytes assessed per million cells at 1 uM measured up to 120 mins in presence of NADPH by LC-MS/MS analysis; type: ADME, cell-based, Hepatocyte; conditions: read-out: CLH
[3] = Apparent permeability in human Caco2 cells at 10 uM after 45 to 120 mins by LC/MS/MS analysis; type: ADME, cell-based; conditions: Caco-2
Glucocorticoid receptor = molecular target: T1, Glucocorticoid receptor (Homo sapiens, UniProt P04150)
T1 sequence (P04150 whole entry): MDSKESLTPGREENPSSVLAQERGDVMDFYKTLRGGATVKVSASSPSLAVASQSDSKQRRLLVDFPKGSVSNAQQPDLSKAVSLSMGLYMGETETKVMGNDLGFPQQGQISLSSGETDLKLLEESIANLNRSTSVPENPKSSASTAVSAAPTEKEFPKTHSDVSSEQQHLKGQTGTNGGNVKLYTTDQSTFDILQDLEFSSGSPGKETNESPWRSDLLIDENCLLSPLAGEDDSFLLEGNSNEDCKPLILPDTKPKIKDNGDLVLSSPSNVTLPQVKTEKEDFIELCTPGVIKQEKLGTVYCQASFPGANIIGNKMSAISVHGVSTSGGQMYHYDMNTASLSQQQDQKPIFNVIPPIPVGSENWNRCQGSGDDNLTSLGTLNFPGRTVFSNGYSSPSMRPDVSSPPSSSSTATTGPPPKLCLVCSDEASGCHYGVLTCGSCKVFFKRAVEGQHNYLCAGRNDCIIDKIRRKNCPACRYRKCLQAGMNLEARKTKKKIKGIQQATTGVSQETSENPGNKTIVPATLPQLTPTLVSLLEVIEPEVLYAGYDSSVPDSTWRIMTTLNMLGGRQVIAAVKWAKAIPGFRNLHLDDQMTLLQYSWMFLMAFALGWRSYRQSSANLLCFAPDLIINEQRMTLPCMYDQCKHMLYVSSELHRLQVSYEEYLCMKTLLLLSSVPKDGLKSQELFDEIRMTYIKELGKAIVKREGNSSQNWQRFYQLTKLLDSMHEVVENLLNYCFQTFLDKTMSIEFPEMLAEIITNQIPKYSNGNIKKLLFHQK
Description: Binding affinity to recombinant human GR LBD by fluormone GS red-fluorescence polarization assay

[4] = molecular target: T2, Mineralocorticoid receptor (Homo sapiens, UniProt P08235)
T2 sequence (P08235 whole entry): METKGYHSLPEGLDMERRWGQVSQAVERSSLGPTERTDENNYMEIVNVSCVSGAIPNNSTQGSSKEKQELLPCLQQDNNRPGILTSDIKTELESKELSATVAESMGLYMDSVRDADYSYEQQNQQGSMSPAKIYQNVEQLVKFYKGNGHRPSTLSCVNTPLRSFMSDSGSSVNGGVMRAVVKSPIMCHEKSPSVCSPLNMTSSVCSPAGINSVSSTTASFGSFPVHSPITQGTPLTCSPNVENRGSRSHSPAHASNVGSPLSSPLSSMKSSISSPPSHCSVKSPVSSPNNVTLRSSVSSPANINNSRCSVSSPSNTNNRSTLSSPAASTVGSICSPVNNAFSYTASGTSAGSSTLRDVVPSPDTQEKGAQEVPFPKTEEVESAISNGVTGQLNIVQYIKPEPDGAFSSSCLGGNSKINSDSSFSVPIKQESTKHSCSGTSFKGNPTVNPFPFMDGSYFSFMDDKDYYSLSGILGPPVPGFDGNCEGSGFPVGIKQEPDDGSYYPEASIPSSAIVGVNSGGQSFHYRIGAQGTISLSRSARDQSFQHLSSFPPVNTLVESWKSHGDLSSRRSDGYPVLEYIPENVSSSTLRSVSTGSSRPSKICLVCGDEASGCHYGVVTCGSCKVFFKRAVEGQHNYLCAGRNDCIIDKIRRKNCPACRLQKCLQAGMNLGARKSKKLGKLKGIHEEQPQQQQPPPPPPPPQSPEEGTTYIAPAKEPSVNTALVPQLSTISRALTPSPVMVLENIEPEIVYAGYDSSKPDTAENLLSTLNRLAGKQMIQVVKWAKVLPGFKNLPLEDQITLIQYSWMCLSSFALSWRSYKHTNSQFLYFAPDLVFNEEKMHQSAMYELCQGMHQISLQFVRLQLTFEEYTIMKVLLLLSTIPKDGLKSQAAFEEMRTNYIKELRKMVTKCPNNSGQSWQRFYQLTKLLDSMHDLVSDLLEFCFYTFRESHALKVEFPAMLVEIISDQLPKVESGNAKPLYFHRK
Description: Displacement of [3H]-aldosterone to human mineralocorticoid receptor LBD by radiometric binding assay

[5] = molecular target: T2, Mineralocorticoid receptor; remark: listed apart in the source
Description: Antagonist activity at gal4-fused human mineralocorticoid receptor LBD expressed in UAS-MR-bla HEK293 cells by luciferase reporter gene assay

| Structure (SMILES) | logD [1] | hepatocyte CLint at 1 µM [2] [µL/min/1e6 cells] | Papp at 10 µM [3] [×10⁻⁶ cm/s] | Ki (Glucocorticoid receptor) [nM] | Ki [4] [nM] | IC50 [5] [nM] |
| --- | --- | --- | --- | --- | --- | --- |
| C[C@@H]1CN(c2ccc3c(n2)NC(=O)CO3)[C@H](c2ccccc2)CO1 | 2.7 |  |  |  |  |  |
| O=c1[nH]c2ccc(/C=C3\c4ccccc4COc4cc(F)ccc43)cc2[nH]1 | 4 |  |  |  |  |  |
| NC(=O)C[C@H]1COc2cc(Cl)ccc2N1C(=O)c1ccc2c(c1)NC(=O)CO2 | 1.7 | 1.5 | 5.6 | 31.6 |  |  |
| CNC(=O)C[C@H]1COc2cc(F)c(OC(C)C)cc2N1C(=O)c1ccc2c(c1)NC(=O)CO2 | 1.8 | < 2 |  | 79.4 | 10 | 200 |
| NS(=O)(=O)C[C@H]1COc2cc(F)ccc2N1C(=O)c1ccc2cc[nH]c2c1 | 2.3 | 3.6 |  | 631 | 50.1 | 251 |
| O=C1COc2ccc(C(=O)N3c4cc(CC5CCCCC5)c(F)cc4OC[C@@H]3CCO)cc2N1 | > 4.4 | 26 |  | 200 | 10 | 251 |
| CNC(=O)C[C@H]1COc2cc(C(F)(F)F)ccc2N1C(=O)c1ccc2c(c1)NC(=O)CO2 | 2.4 | 3 | 19 | 398 | 12.6 | 79.4 |
| CNC(=O)C[C@H]1COc2ccccc2N1C(=O)c1ccc2c(c1)NC(=O)CO2 | 1.1 | < 1 | 6.8 | 3160 |  |  |
| CNC(=O)C[C@H]1COc2cc(F)c(CC(C)C)cc2N1C(=O)c1ccnc(NC(N)=O)c1 | 2.2 | 6.1 |  | 126 | 7.94 | 100 |
| CC(C)Cc1cc2c(cc1F)OC[C@H](CS(N)(=O)=O)N2C(=O)c1ccc2c(c1)NC(=O)CO2 | 2.8 | 18 |  | 1.58 | < 0.316 | 0.794 |
| CNC(=O)C[C@@H]1COc2cc(F)ccc2N1C(=O)c1ccc2c(c1)NC(=O)CO2 | 1.3 | < 1 | 6.2 |  |  |  |
| NC(=O)C[C@H]1COCc2cc(F)ccc2N1C(=O)c1ccc2c(c1)NC(=O)CO2 | 0.4 | < 1 | < 0.6 | > 15800 | > 10000 | > 10000 |
| CC(C)Cc1cc2c(cc1Cl)OC[C@H](CC(N)=O)N2C(=O)c1ccc2c(c1)NC(=O)CO2 | 3.3 | 11 |  | 1.26 | 0.501 | 2.51 |
| CNC(=O)C[C@H]1COc2cc(Cl)cc(C)c2N1C(=O)c1ccc2c(c1)NC(=O)CO2 | 1.2 | 2.5 | 7.8 | > 12600 | 398 | 2000 |
| NC(=O)C[C@H]1COc2cc(F)ccc2N1C(=O)c1ccc2c(c1)NC(=O)CO2 | 1.1 | < 1 | 3 | 631 |  |  |
| CNC(=O)C[C@H]1COc2cc(C)ccc2N1C(=O)c1ccc2c(c1)NC(=O)CO2 | 1.6 | 2.8 | 14 | 316 | 3.98 | 100 |
| CNC(=O)C[C@H]1COc2cc(C#N)ccc2N1C(=O)c1ccc2c(c1)NC(=O)CO2 | 0.9 | < 1 | 1.5 | > 12600 | 1000 | 6310 |
| NC(=O)C[C@H]1CNc2cc(Cl)ccc2N1C(=O)c1ccc2c(c1)NC(=O)CO2 | 1.5 | < 1 | < 0.81 | 316 | 7.94 | 126 |
| CNC(=O)C[C@H]1COc2cc(F)c(CC(C)C)cc2N1C(=O)c1ccc2c(c1)NC(=O)CO2 | 3.1 | 13 |  | 7.94 | 0.631 | 20 |
| Cc1ccc2c(c1)OC[C@](C)(CS(C)(=O)=O)N2C(=O)c1ccc2c(c1)NC(=O)CO2 | 1.8 | 60 | 38 | 1000 | 15.8 | 63.1 |
| NS(=O)(=O)C[C@H]1COc2cc(F)ccc2N1C(=O)c1ccc2c(c1)NCCO2 | 1.3 | < 1 |  | 1260 | 39.8 | 200 |
| CS(=O)(=O)C[C@H]1COc2cc(F)ccc2N1C(=O)c1ccc2c(c1)NC(=O)CO2 | 1.4 | 8 | 10 | 20 | 0.316 | 2.51 |
| CNC(=O)C[C@H]1COc2cc(Br)ccc2N1C(=O)c1ccc2c(c1)NC(=O)CO2 | 2.2 | 5 | 23 | 126 |  |  |
| N=C(c1ccc2c(c1)NC(=O)CO2)[C@@H](Sc1nnc[nH]1)c1ccccc1 | 2.4 |  |  |  | 501 |  |
| NC(=O)C[C@H]1COc2cc(F)c(C3CC3)cc2N1C(=O)c1ccc2c(c1)NC(=O)CO2 | 2 | < 2 |  | 2.51 | 3.16 | 79.4 |
| CNC(=O)C[C@H]1COc2cc(F)ccc2N1C(=O)c1ccc2c(c1)NC(=O)OC2 | 0.9 | < 1 |  | > 15800 | > 6310 | > 10000 |

— ChEMBL document CHEMBL4422622, “Identification of Mineralocorticoid Receptor Modulators with Low Impact on Electrolyte Homeostasis but Maintained Organ Protection” (J Med Chem, 2019)
